Reference: PubChem BioAssay (NCI)
“And” between values parts separate entries of the source, which are not always exact repeats. Identical values can stand only once.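 Results reflect a 48-hour exposure of cells in 96-well plates to compound at five concentrations. GI50: concentration for 50% inhibition of growth. TGI denotes the concentration required for complete inhibition of growth.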

Assays:
Experiment in all cases: NCI-60 cell line screen, 48 h
[1] = test system: U251 CNS
[2] = test system: 786-0 renal
[3] = test system: CCRF-CEM leukemia
[4] = test system: SK-MEL-28 melanoma
[5] = test system: M14 melanoma
[6] = test system: SNB-19 CNS
[7] = test system: BT-549 breast
[8] = test system: HOP-92 NSCLC
[9] = test system: SK-MEL-2 melanoma
[10] = test system: OVCAR-8 ovarian

| Structure (SMILES) | GI50 [1] [µM] | TGI [1] | GI50 [2] [µM] | TGI [2] | GI50 [3] [µM] | TGI [3] | GI50 [4] | TGI [4] | GI50 [5] [µM] | TGI [5] | GI50 [6] | TGI [6] | GI50 [7] [µM] | TGI [7] | GI50 [8] | TGI [8] | GI50 [9] [µM] | TGI [9] | GI50 [10] | TGI [10] |
| --- | --- | --- | --- | --- | --- | --- | --- | --- | --- | --- | --- | --- | --- | --- | --- | --- | --- | --- | --- | --- |
| COc1ccc(/C(C)=C(\c2ccc(OCCN3CCCCCC3)cc2)c2ccc(OC(=O)C3CCCCC3)cc2)cc1 | 1.01 | 3.62 µM | 1.11 | 3.06 µM | 0.75 | 9.39 µM | 1.25 µM | 3.14 µM | 0.416 | 1.3 µM | 2.45 µM | 10.5 µM | 1.53 | 3.36 µM | 0.813 µM | 2.76 µM | 1.87 | 4.19 µM | 2.04 µM | 5.9 µM |
| CO[C@H]1Nc2c(ccc(C)c2O)C(=O)N2C=C(/C=C/C(N)=O)C[C@@H]12 |  | 10.8 µM |  | 2.03 µM |  | > 50.6 µM |  | 0.0829 µM |  | 0.0406 µM |  | > 58.2 µM |  | < 0.0479 µM |  | 0.217 µM |  | 0.0223 µM |  | 2.01 µM |
| CC(C)[C@H](O)C(=O)N[C@@H](C)C(=O)N[C@@H]1C(=O)N(C)CCc2ccccc21 | > 100 | > 100 µM | > 100 | > 100 µM | > 100 | > 100 µM | > 100 µM | > 100 µM | > 100 | > 100 µM | > 100 µM | > 100 µM | > 100 | > 100 µM | > 100 µM | > 100 µM | > 100 | > 100 µM | > 100 µM | > 100 µM |
| O=C1CCCN1c1ccccc1I(=O)=O | > 100 | > 100 µM | > 100 | > 100 µM | > 100 | > 100 µM | > 100 µM | > 100 µM |  |  | > 100 µM | > 100 µM | > 100 | > 100 µM | > 100 µM | > 100 µM | > 100 | > 100 µM | > 100 µM | > 100 µM |
| OC(c1cc(-c2ccc(C(F)(F)F)cc2)nc(C(F)(F)F)c1)C1CCCCN1 (stereo not given) | 1.53 | 2.86 µM and 3.34 µM | 1.57 | 3.16 µM and 3.48 µM | 1.62 | 3.53 µM and 4.81 µM | 1.83 µM and 2.55 µM | 3.27 µM and 5.97 µM |  | 3.12 µM and 3.14 µM | 1.53 µM and 5.66 µM | 2.92 µM and 13.5 µM | 1.7 | 3.08 µM | 1.06 µM and 2.38 µM | 2.47 µM and 9.39 µM |  | 3.42 µM and 3.49 µM | 1.87 µM and 2.2 µM | 3.62 µM and 4.59 µM |
| CC(C)(C)[Si](C)(C)OC1[C@@H](CNC(=O)NC(=O)CCl)O[C@@H](n2cnc3c(N)ncnc32)[C@H]1O[Si](C)(C)C(C)(C)C (stereo not given in full) | 0.849 | 1.58 µM | 0.662 | 1.55 µM | 0.121 | 0.326 µM | 1.4 µM | 4.12 µM | 1.07 | 2.49 µM | 2.43 µM | 9.46 µM | 0.869 | 1.73 µM | 0.885 µM | 1.86 µM | 1.04 | 2.01 µM | 0.812 µM | 2.85 µM |
| CCCC(=O)C1=C(O)C(Cc2c(O)c(C)c(O)c(C(=O)CCC)c2O)=C(O)C(C)(C)C1=O |  | > 50 µM |  | > 50 µM |  | 20 µM |  | > 50 µM |  | > 50 µM |  | > 50 µM |  | > 50 µM |  | > 50 µM |  | > 50 µM |  | > 50 µM |
| c1ccc2c(c1)[nH]c1c2cc[n+]2cc3c(cc12)CCCC3 |  | 9.77 µM and 12.1 µM | 4 | 16.4 µM and 12.7 µM | 2.76 | 12.7 µM |  | 5.26 µM and 4.19 µM | 3.01 | 14 µM and 7.29 µM |  | 12 µM and 9.35 µM | 8.96 | 25.5 µM and 8.29 µM | 4.57 µM | 24.8 µM | 1.44 |  | 1.95 µM | 7.57 µM and 11.2 µM |
| O=C(NCc1ccc(Cn2c(=O)sn(-c3ccccc3)c2=O)cc1)OCc1ccc2cccc(O)c2n1 | 1.47 | 2.92 µM | 0.484 | 1.08 µM | 0.359 | > 100 µM | 1.34 µM | 2.64 µM | 0.647 | 2.03 µM | 1.49 µM | 2.84 µM | 0.732 | 2.3 µM | 0.459 µM | 1.97 µM | 1.46 | 3 µM | 0.957 µM | 3 µM |
| CCC(C)(O)c1cnc(CC(C)C)c(=O)n1O (stereo not given) |  | > 100 µM |  | > 100 µM |  | 54.1 µM |  | > 100 µM |  |  |  | > 100 µM |  | > 100 µM |  | > 100 µM |  | > 100 µM |  | > 100 µM |
| CCNC(=O)/C(=C/c1ccc(OC)cc1)c1cc(OC)c(OC)c(OC)c1 |  | 70 µM |  | > 100 µM |  | > 100 µM |  | > 100 µM |  | > 100 µM |  | > 100 µM |  | > 100 µM |  | > 96.6 µM |  | > 100 µM |  | > 100 µM |
| ClC(Cl)=C1C(=C(Cl)Cl)C(Cl)(Cl)C1(Cl)Cl |  | 13.9 µM |  | 2.81 µM | 0.334 | 1.5 µM |  | 4.06 µM |  | 4.17 µM |  | 29 µM |  | 13.4 µM |  | 4.5 µM |  | 3.32 µM |  | 18.7 µM |
| Nc1cc2c(cc1Br)[nH]c(=O)c1ccccc12 |  |  | 6.16 | > 100 µM | 6.82 | 59.5 µM | 4.25 µM | 15.5 µM | 2.92 | 10 µM | 5.25 µM | 20.2 µM | 12.3 | 31.4 µM | 3.81 µM | 41.8 µM | 3.44 | 11.2 µM | 3.37 µM | > 100 µM |
| COC(=O)C1C(O)C(C(=O)OC)C(C)N(C)C1C (stereo not given) |  | > 100 µM |  | > 100 µM |  | > 100 µM |  | > 100 µM |  | > 100 µM |  | > 100 µM |  | > 100 µM |  | > 100 µM |  | > 100 µM |  | > 100 µM |
| CCc1ccc2c(c1)C(=O)c1c-2n(CCCN=[N+]=[N-])c(=O)c2cc([N+](=O)[O-])ccc12 | > 50 | > 50 µM | > 50 | > 50 µM | > 50 | > 50 µM | > 50 µM | > 50 µM | > 50 | > 50 µM | > 50 µM | > 50 µM | > 50 | > 50 µM | > 50 µM | > 50 µM | > 50 | > 50 µM | > 50 µM | > 50 µM |
